Patent publication US20040009507A1, “Concatenated nucleic acid sequence” (Domantis, Ltd., priority 2000, published 2004)
Positions of bridges follow the written chain, without caps; N, C: chain ends. Residues, ends and D or L forms follow the SMILES beside them.

Experiments:
[1] = target: T1, EC-EpoR-Fc (Homo sapiens, UniProt P19235); experiment: Competition ELISA with synthetic trMP peptide, phage binding to immobilised EC-EpoR-Fc
T1 construct: (EC-EpoR, amino acids 1 to 225); made in house; host or cells: Pichia pastoris X-33 (pPICZαA, secreted)
T1 sequence (P19235 25-249): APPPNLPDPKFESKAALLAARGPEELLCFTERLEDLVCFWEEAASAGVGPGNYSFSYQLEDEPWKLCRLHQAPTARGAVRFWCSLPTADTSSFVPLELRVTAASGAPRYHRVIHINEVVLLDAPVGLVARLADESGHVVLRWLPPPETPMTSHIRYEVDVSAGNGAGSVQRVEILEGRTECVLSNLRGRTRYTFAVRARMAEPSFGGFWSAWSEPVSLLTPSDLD
Description: Without a crystal structure of the MP/Ec-EpoR-Fc complex, it is however unclear whether the contribution of an MP residue in these parts to EC-EpoR-Fc binding is related to direct peptide-receptor interaction or to intra-molecular interactions. In an attempt to delineate the MP peptide binding site on EC-EpoR-Fe, a competition ELISA using a synthetic truncated version of the MP peptide (trMP, from A3 to Y28) was performed. […] A similar result (i.e. binding outside the biological ligand-binding site) has been reported for the symmetrical molecule SB-247464 which recognises the homodimeric G-CSF receptor (Tian et al., 1998). Large and complex proteins with modular architecture indeed appear to have multiple ligand-binding sites located at the slits between symmetrical modules.
For competition ELISA with synthetic trMP peptide (see below), serial dilutions of MP peptide (starting from 1 mM) were mixed with 2.5×10^8 phage in 2% MPBS, then added to pre-blocked EC-EpoR-Fc-coated wells for 2 hours. Bound phage were detected as described above. […] Bound EC-EpoR-Fc was detected with protein A-horseradish peroxidase conjugate ( 1/4000 dilution, Sigma), and o-phenylene diamine dihydrochloride (OPD) as substrate. After 10-15 minutes, the reactions were stopped with 50 μl of 4 N H2SO4 and absorbances were measured at 492 nm.

[2] = target: T2, ferritin (Equus caballus, UniProt P02791+Q8MIP0); experiment: Apparent dissociation constant of n-unit HKPRKE MBP fusions for ferritin; set-up: species or system horse; conditions: n-unit of HKPRKE motif fused to maltose-binding protein
T2 construct: ferritin (from horse spleen, Sigma cat. F-4503); purchased Sigma F-4503; host or cells: horse spleen
T2 sequence (P02791 2-175 limits assumed): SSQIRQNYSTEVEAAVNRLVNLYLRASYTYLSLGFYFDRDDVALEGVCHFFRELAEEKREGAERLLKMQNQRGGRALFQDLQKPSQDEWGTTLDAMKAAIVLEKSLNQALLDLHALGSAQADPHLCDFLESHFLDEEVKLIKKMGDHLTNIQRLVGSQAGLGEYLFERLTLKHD
T2 sequence (Q8MIP0 whole entry, the tested form may be a part): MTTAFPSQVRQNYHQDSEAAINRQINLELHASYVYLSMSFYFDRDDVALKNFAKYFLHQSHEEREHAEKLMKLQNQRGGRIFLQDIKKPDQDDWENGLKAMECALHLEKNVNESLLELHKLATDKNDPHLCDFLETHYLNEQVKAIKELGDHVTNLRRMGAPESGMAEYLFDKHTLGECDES
Description: In contrast, the results from the Fd-1×6-mer, Fd-2×6-mer, and Fd-4×6-mer peptide libraries indicate that concatenation is crucial to reach the selection threshold for binding to ferritin. […] By competition ELISA, we observed that these peptide constructs had affinities to ferritin very similar to that of peptide F6. […] In a randomised polypeptide, the likelihood that down-mutations will offset up-mutations increases with its length, so that ultimately most longer polypeptides will have average sequence profiles. […]
For competition ELISA with ferritin-binding peptide, serial dilutions of MBP-fusions (see below) were incubated with 10 nM biotinylated ferritin in 2% MPBS overnight at 4° C., then added to pre-blocked MBP-(HKPRKE)8-coated wells for 30 min. Bound biotinylated ferritin was detected by incubation with streptavidin horseradish peroxidase conjugate (Sigma) and OPD.
Apparent dissociation constants were calculated using the BIAevaluation program and the 1:1 Langmuir dissociation model from sensorgrams (BIAcore) collected upon immobilisation of 200-400 resonance units (RU) of biotinylated ligands (sEPOR-Fc or MBP-fusion) on SA-sensor chips followed by injection of various analytes (sEPOR-Fc, MBP-fusion, 0.1 to 2 μM concentration range) diluted in HBS-EP buffer (BIAcore), at a flow rate of 80 μl/min at 25° C.

Row | Compound | IC50 ([1]; read-out: IC50 for blocking MP phage-peptide binding to immobilised EC-EpoR-Fc) | effect on signal of phage displaying the EMP1 peptide ([1]; trMP concentration up to 1 mM) | Kd [2]
1 | CC(C)C[C@H](NC(=O)[C@@H](NC(=O)[C@H](C)NC(=O)CNC(=O)[C@H](Cc1c[nH]cn1)NC(=O)[C@@H]1CSSC[C@H](NC(=O)[C@H](C)N)C(=O)N[C@@H](Cc2c[nH]cn2)C(=O)NCC(=O)N[C@@H](C)C(=O)N[C@@H]([C@@H](C)O)C(=O)N[C@@H](CC(C)C)C(=O)N[C@@H](CCC(=O)O)C(=O)N[C@@H](CCC(N)=O)C(=O)N[C@@H]([C@@H](C)O)C(=O)N[C@@H](Cc2ccc(O)cc2)C(=O)N[C@@H](C)C(=O)N[C@@H](CC(C)C)C(=O)N2CCC[C@H]2C(=O)N[C@@H](CC(C)C)C(=O)N[C@@H](C)C(=O)N1)[C@@H](C)O)C(=O)N[C@@H](CCC(=O)O)C(=O)N[C@@H](CCC(N)=O)C(=O)N[C@H](C(=O)N[C@@H](Cc1ccc(O)cc1)C(=O)O)[C@@H](C)O [trMP, NH2-ACHGATLEQTYALPL ACHGATLEQTY-CO2H] (H-ACHGATLEQTYALPLACHGATLEQTY-OH; disulfide 2-17 (inferred)) | 10 µM | no reduction in signal | –
2 | (HKPRKE)4 [F6 peptide] | – | – | ~0.5 µM
